Results published in patent publication US20240158446A1, “CYCLIC COMPOUND HAVING SELECTIVE INHIBITORY ACTION ON KRAS OVER HRAS AND NRAS” (CHUGAI SEIYAKU KABUSHIKI KAISHA, priority 2021, published 2024).
Where a SMILES comes first, the peptide text is derived from it. Bridges are numbered along the chain shown (N, C = ends). [ ]: non-standard residue; d: D form. The star is where a group is joined. hPhe(3-Cl-4-CF3) = N[C@@H](CCc1ccc(C(F)(F)F)c(Cl)c1)C(=O)O; NEtPhe(4-Me) = CCN[C@@H](Cc1ccc(C)cc1)C(=O)O; NMeGly(cPent) = CN[C@H](C(=O)O)C1CCCC1; Hyp = O=C(O)[C@@H]1C[C@@H](O)CN1; NMeD = CN[C@@H](CC(=O)O)C(=O)O; NMeL = CN[C@@H](CC(C)C)C(=O)O; Morpholide = C1CN(*)CCO1; Ac5c = NC1(C(=O)O)CCCC1; X51 = C1CCC(*)OC1; Sar = CNCC(=O)O

What was measured:
[1] = molecular target: GDP-bound HRAS wild-type protein (Homo sapiens, UniProt P01112); assay: Binding to HRAS by surface plasmon resonance (SPR), Single Cycle Kinetics; conditions: for HRAS/KRAS (ratio of KD value with respect to GDP-bound HRAS wild-type protein to KD value with respect to KRAS): SPR KD ratio HRAS/KRAS, class symbols
Sequence of GDP-bound HRAS wild-type protein (P01112 whole entry): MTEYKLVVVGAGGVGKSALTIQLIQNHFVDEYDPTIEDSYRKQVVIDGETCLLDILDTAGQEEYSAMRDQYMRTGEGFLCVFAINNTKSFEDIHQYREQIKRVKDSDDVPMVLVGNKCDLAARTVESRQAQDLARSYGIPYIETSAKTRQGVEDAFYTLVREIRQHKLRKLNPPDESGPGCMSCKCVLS

[2] = molecular target: GDP-bound NRAS wild-type protein (Homo sapiens, UniProt P01111); assay: Binding to NRAS by surface plasmon resonance (SPR), Single Cycle Kinetics; conditions: for NRAS/KRAS (ratio of KD value with respect to GDP-bound NRAS wild-type protein to KD value with respect to KRAS): SPR KD ratio NRAS/KRAS, class symbols
Sequence of GDP-bound NRAS wild-type protein (P01111 whole entry): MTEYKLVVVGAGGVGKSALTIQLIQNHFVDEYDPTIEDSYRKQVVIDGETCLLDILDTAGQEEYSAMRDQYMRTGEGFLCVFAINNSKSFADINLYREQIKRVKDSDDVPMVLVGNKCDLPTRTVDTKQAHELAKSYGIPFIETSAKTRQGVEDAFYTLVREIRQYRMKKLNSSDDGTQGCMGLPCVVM

[3] = SPR, GDP-bound HRAS wild-type protein vs GDP-bound KRAS wild-type protein
[4] = SPR, GDP-bound NRAS wild-type protein vs GDP-bound KRAS wild-type protein
[5] = SPR, GDP-bound HRAS wild-type protein vs GDP-bound KRAS wild-type protein, KD ratio class
[6] = SPR, GDP-bound NRAS wild-type protein vs GDP-bound KRAS wild-type protein, KD ratio class

Compound	HRAS/KRAS (ratio of KD value for HRAS to KD value for KRAS) [1, 3]	NRAS/KRAS (ratio of KD value for NRAS to KD value for KRAS) [2, 4]	also measured
CCO[C@@H]1C[C@H]2C(=O)NC3(CC(C)(C)C3)C(=O)N(C)[C@@H](C(CC)CC)C(=O)N(C)[C@H](C(=O)N(C)C)CC(=O)N(C)[C@@H](C(C)C)C(=O)N[C@@H]([C@@H](C)CC)C(=O)N(C)CC(=O)N(C)[C@H]3C/C=C\CCN(C3=O)[C@@H](Cc3ccc(C)cc3)C(=O)N(C)CC(=O)N[C@@H](CCc3ccc(C(F)(F)F)c(Cl)c3)C(=O)N2C1 [PP2158]	A (a compound having 10 or more and less than 20 is denoted as A)	AA (a compound having 20 or more is denoted as AA)	
CCO[C@@H]1C[C@H]2C(=O)NC3(CCC3)C(=O)N(C)[C@@H](C3CCCC3)C(=O)N(CC)[C@H](C(=O)N3CCOCC3)CC(=O)N(C)[C@@H](CC(C)C)C(=O)N[C@@H]([C@@H](C)CC)C(=O)N(C)CC(=O)N(C)[C@H]3CCCCCN(C3=O)[C@@H](Cc3ccc(C(F)(F)F)cc3)C(=O)N(C)CC(=O)N[C@@H](CCc3cc(F)c(C(F)(F)F)c(F)c3)C(=O)N2C1 [PP0638]			HRAS/KRAS (ratio of KD value with respect to HRAS to KD value with respect to KRAS) [1, 3]: B (a compound having 3 or more and less than 10 is denoted as B); NRAS/KRAS (ratio of KD value with respect to NRAS to KD value with respect to KRAS) [2, 4]: B (a compound having 3 or more and less than 10 is denoted as B)
C=CCCCCN(C)C(=O)[C@@H]1CC(=O)N(C)[C@@H](CC2CC2)C(=O)N[C@@H](CC=C)C(=O)N(C)CC(=O)N(C)[C@H]2C/C=C\CCN(C2=O)[C@@H](Cc2ccc(C(F)(F)F)cc2)C(=O)N(C)CC(=O)N[C@@H](CCc2cc(F)c(C(F)(F)F)c(F)c2)C(=O)N2C[C@H](OCC)C[C@H]2C(=O)NC2(CCC2)C(=O)N(C)[C@@H](C2CCCC2)C(=O)N1C [PP1554]			HRAS/KRAS (ratio of KD value for HRAS to KD value for KRAS) [1, 5]: A (a compound having 10 or more and less than 20 is denoted as A); NRAS/KRAS (ratio of KD value for NRAS to KD value for KRAS) [2, 6]: A (a compound having 10 or more and less than 20 is denoted as A)
CCCCO[C@H]1CCN2C(=O)[C@H](CCc3cc(F)c(C(F)(F)F)c(F)c3)NC(=O)CN(C)C(=O)[C@H](Cc3ccc(C(F)(F)F)cc3)N3CCCCC[C@@H](C3=O)N(C)C(=O)CN(C)C(=O)[C@H]([C@@H](C)CC)NC(=O)[C@H](CC(C)C)N(C)C(=O)C[C@@H](C(=O)N3CCOCC3)N(C)C(=O)[C@H](C3CCCC3)N(C)C(=O)C3(CCC3)NC(=O)[C@H]12 [PP1009]	B (a compound having 3 or more and less than 10 is denoted as B)	B (a compound having 3 or more and less than 10 is denoted as B)	
CC[C@H](C)[C@@H]1NC(=O)[C@H](CC(C)C)N(C)C(=O)C[C@@H](C(=O)N2CCOCC2)N(C)C(=O)[C@H](C2CCCC2)N(C)C(=O)C2(CCCC2)NC(=O)[C@@H]2C[C@@H](OC3CCCCO3)CN2C(=O)[C@H](CCc2ccc(C(F)(F)F)c(Cl)c2)NC(=O)CN(C)C(=O)[C@H](Cc2ccc(C)cc2)N(CC)C(=O)CN(C)C(=O)CN(C)C1=O (some centres unmarked) [PP0068] ([NMeL]I[Sar][Sar][NEtPhe(4-Me)][Sar][hPhe(3-Cl-4-CF3)][Hyp](X51)[Ac5c][NMeGly(cPent)][NMeD]-Morpholide; lactam N-11)	C (A compound having a KD ratio of 0.1 or more and less than 3 is denoted as C)	C (A compound having a KD ratio of 0.1 or more and less than 3 is denoted as C)	
CC[C@H](C)[C@@H]1NC(=O)[C@H](CC(C)C)N(C)C(=O)C[C@@H](C(=O)N2CCOCC2)N(C)C(=O)[C@H](C2CCCC2)N(C)C(=O)C2(CCC2)NC(=O)[C@@H]2[C@H](OC)CCN2C(=O)[C@H](CCc2cc(F)c(C(F)(F)F)c(F)c2)NC(=O)CN(C)C(=O)[C@H](Cc2ccc(C(F)(F)F)cc2)N2CCCC[C@@H](C2=O)N(C)C(=O)CN(C)C1=O [PP1084]	B (a compound having 3 or more and less than 10 is denoted as B)	C (A compound having a KD ratio of 0.1 or more and less than 3 is denoted as C)	
CCC[C@H]1C(=O)N[C@@H]([C@@H](C)CC)C(=O)N(C)CC(=O)N(C)[C@H]2C/C=C\CCN(C2=O)[C@@H](Cc2ccc(C)cc2)C(=O)N(C)CC(=O)N[C@@H](CCc2cc(F)c(C(F)(F)F)c(F)c2)C(=O)N2C[C@H](CC)C[C@H]2C(=O)NC2(CCCC2)C(=O)N(C)[C@@H](C2CCCC2)C(=O)N(C)[C@H](C(=O)N(C)C)CC(=O)N1C [PP2216]	A (a compound having 10 or more and less than 20 is denoted as A)	A (a compound having 10 or more and less than 20 is denoted as A)	
CCC[C@H]1C(=O)N[C@@H]([C@@H](C)CC)C(=O)N(C2CC2)CC(=O)N(C)[C@H]2C/C=C\CCN(C2=O)[C@@H](Cc2ccc(C)cc2)C(=O)N(C)CC(=O)N[C@@H](CCc2cc(C)c(C(F)F)c(F)c2)C(=O)N2C[C@H](OCC)C[C@H]2C(=O)NC2(CC(C)(C)C2)C(=O)N(C)[C@@H](C2CCCC2)C(=O)N(C)[C@H](C(=O)N(C)C)CC(=O)N1C [PP2874]			HRAS/KRAS (ratio of KD value with respect to GDP-bound HRAS wild-type protein to KD value with respect to KRAS) [1]: A (a compound having 10 or more and less than 20 is denoted as A); NRAS/KRAS (ratio of KD value with respect to GDP-bound NRAS wild-type protein to KD value with respect to KRAS) [2]: A (a compound having 10 or more and less than 20 is denoted as A)
CCC[C@@H]1C[C@H]2C(=O)NC3(CCCC3)C(=O)N(C)[C@@H](C3CCCC3)C(=O)N(C)[C@H](C(=O)N(C)C)CC(=O)N(C)[C@@H](CC(C)C)C(=O)N[C@@H]([C@@H](C)CC)C(=O)N(C)CC(=O)N(C)[C@H]3C/C=C\CCN(C3=O)[C@@H](Cc3ccc(C)cc3)C(=O)N(C)CC(=O)N[C@@H](CCc3cc(F)c(C(F)(F)F)c(F)c3)C(=O)N2C1 [PP2193]	A (a compound having 10 or more and less than 20 is denoted as A)	A (a compound having 10 or more and less than 20 is denoted as A)	
CCO[C@@H]1C[C@H]2C(=O)NC3(CCC3)C(=O)N(C)[C@@H](C3CCCC3)C(=O)N(C)[C@H](C(=O)N(C)CC)CC(=O)N(C)[C@@H](CC3CCCC3)C(=O)N[C@@H]([C@@H](C)CC)C(=O)N(C)CC(=O)N(C)[C@H]3C/C=C\CCN(C3=O)[C@@H](Cc3ccc(C(F)(F)F)cc3)C(=O)N(C)CC(=O)N[C@@H](CCc3ccc(C(F)(F)F)c(OC)c3)C(=O)N2C1 [PP1573]			HRAS/KRAS (ratio of KD value for HRAS to KD value for KRAS) [1, 5]: A (a compound having 10 or more and less than 20 is denoted as A); NRAS/KRAS (ratio of KD value for NRAS to KD value for KRAS) [2, 6]: A (a compound having 10 or more and less than 20 is denoted as A)
CCC[C@H]1C(=O)N[C@@H]([C@@H](C)CC)C(=O)N(C2CC2)CC(=O)N(C)[C@H]2C/C=C\CCN(C2=O)[C@@H](Cc2ccc(C(F)(F)F)cc2)C(=O)N(C)CC(=O)N[C@@H](CCc2cc(F)c(C(F)(F)F)c(F)c2)C(=O)N2C[C@H](OCC)C[C@H]2C(=O)NC2(CC(C)(C)C2)C(=O)N(C)[C@@H](CC(C)(C)C)C(=O)N(C)[C@H](C(=O)N(C)C)CC(=O)N1C [PP2742]			HRAS/KRAS (ratio of KD value with respect to GDP-bound HRAS wild-type protein to KD value with respect to KRAS) [1]: A (a compound having 10 or more and less than 20 is denoted as A); NRAS/KRAS (ratio of KD value with respect to GDP-bound NRAS wild-type protein to KD value with respect to KRAS) [2]: AA (a compound having 20 or more is denoted as AA)
CCO[C@@H]1C[C@H]2C(=O)NC3(CCC3)C(=O)N(C)[C@@H](C3CCCC3)C(=O)N(C)[C@H](C)CC(=O)N(C)[C@@H](CC(C)C)C(=O)N[C@@H]([C@@H](C)CC)C(=O)N(C)CC(=O)N(C)[C@H]3C/C=C\CCN(C3=O)[C@@H](Cc3ccc(C(F)(F)F)cc3)C(=O)N(C)CC(=O)N[C@@H](CCc3cc(F)c(C(F)(F)F)c(F)c3)C(=O)N2C1 [PP1100]	B (a compound having 3 or more and less than 10 is denoted as B)	B (a compound having 3 or more and less than 10 is denoted as B)	
CCC[C@H]1C(=O)N[C@@H]([C@@H](C)CC)C(=O)N(C)CC(=O)N(C)[C@H]2C/C=C\CCN(C2=O)[C@@H](Cc2ccc(C(F)(F)F)cc2)C(=O)N(C)CC(=O)N[C@@H](CCc2cc(C)c(C(F)F)c(Cl)c2)C(=O)N2C[C@H](OCC)C[C@H]2C(=O)NC2(CC(C)(C)C2)C(=O)N(C)[C@@H](C2CCCC2)C(=O)N(C)[C@H](C(=O)N(C)C)CC(=O)N1C [PP2866]			HRAS/KRAS (ratio of KD value with respect to GDP-bound HRAS wild-type protein to KD value with respect to KRAS) [1]: A (a compound having 10 or more and less than 20 is denoted as A); NRAS/KRAS (ratio of KD value with respect to GDP-bound NRAS wild-type protein to KD value with respect to KRAS) [2]: A (a compound having 10 or more and less than 20 is denoted as A)
CCC[C@H]1C(=O)N[C@@H]([C@@H](C)CC)C(=O)N(C)CC(=O)N(C)[C@H]2C/C=C\CCN(C2=O)[C@@H](Cc2ccc(C(F)(F)F)cc2)C(=O)N(C)CC(=O)N[C@@H](CCc2ccc(C3CC3)c(OC)c2)C(=O)N2C[C@H](OCC)C[C@H]2C(=O)NC2(CC(C)(C)C2)C(=O)N(C)[C@@H](C2CCCC2)C(=O)N(C)[C@H](C(=O)N(C)C)CC(=O)N1C [PP2853]			HRAS/KRAS (ratio of KD value with respect to GDP-bound HRAS wild-type protein to KD value with respect to KRAS) [1]: A (a compound having 10 or more and less than 20 is denoted as A); NRAS/KRAS (ratio of KD value with respect to GDP-bound NRAS wild-type protein to KD value with respect to KRAS) [2]: A (a compound having 10 or more and less than 20 is denoted as A)
C#CCN1CC(=O)N(C)[C@H]2C/C=C\CCN(C2=O)[C@@H](Cc2ccc(C)cc2)C(=O)N(C)CC(=O)N[C@@H](CCc2ccc(C(F)(F)F)c(OC)c2)C(=O)N2C[C@H](OCC)C[C@H]2C(=O)NC2(CC(C)(C)C2)C(=O)N(C)[C@@H](C2CCCC2)C(=O)N(C)[C@H](C(=O)N(C)C)CC(=O)N(C)[C@@H](CCC)C(=O)N[C@@H]([C@@H](C)CC)C1=O [PP2099]	A (a compound having 10 or more and less than 20 is denoted as A)	A (a compound having 10 or more and less than 20 is denoted as A)	
CCO[C@@H]1C[C@H]2C(=O)NC3(CC(C)(C)C3)C(=O)N(C)[C@@H](C(CC)CC)C(=O)N(C)[C@H](C(=O)N(C)C)CC(=O)N(C)[C@@H](CC)C(=O)N[C@@H]([C@@H](C)CC)C(=O)N(C)CC(=O)N(C)[C@H]3C/C=C\CCN(C3=O)[C@@H](Cc3ccc(C(F)(F)F)cc3)C(=O)N(C)CC(=O)N[C@@H](CCc3ccc(Cl)c(Cl)c3)C(=O)N2C1 [PP2179]	A (a compound having 10 or more and less than 20 is denoted as A)	AA (a compound having 20 or more is denoted as AA)	
